Patent US20200390825A1, “PLURIPOTENT STEM CELL-DIRECTED MODEL OF AUTOSOMAL DOMINANT POLYCYSTIC KIDNEY DISEASE FOR DISEASE MECHANISM AND DRUG DISCOVERY” (University of Southern California, priority 2019, published 2020)

Experiments:
PKD2−/− organoids [1] = assay: Primary protein kinase inhibitor screen for cyst formation in mini-kidney organoids; type: cell-based, human; conditions: 1 μM, 9 wells on 3 plates per compound
Experimental: The autoclaved methylcellulose was dissolved in 60° C. 450 ml of Advanced RPMI 1640 Medium (Gibco, 12633020).
Several commercially available libraries of pathway annotated protein kinase inhibitors were purchased from Calbiochem for screening: EMD protein kinase inhibitor 1 (Cat. No. 539744); EMD-protein kinase inhibitor-2 (Cat. No. 539745); EMD protein kinase inhibitor-3 (Cat. No. 539746); EMD protein kinase inhibitor-4 (Cat. No. 539747). All screens were carried out in the Choi Family Therapeutic Screening Facility in the Broad-CIRM center.
Protein kinase inhibitors were diluted in DMSO to make 10 μM stocks. […] The plates were loaded on the ImageXpress Micro System for live imaging right after compounds were loaded. The imaging was performed using the “Standard” algorithm, at 4× magnification, 2 camera binning, with laser-based and image-based focusing enabled, and well-to-well autofocus was set to “focus on plate bottom and well bottom”.
To gain new insight into pathways specifically regulating cystic growth and to validate the mini-organoid system as a robust drug screening tool, we screened a commercial library of pathway annotated protein kinase inhibitors (FIG. 19). The primary screen was performed using a library of 247 protein kinase inhibitors (PKIs) (at 1 μM) on PKD2−/− organoids, with 9 wells on 3 separate plates per compound. […] To increase the stringency of the screen, only compounds identified as “hits” in all 9 wells were considered true “hits” and selected for a secondary screen.

PKD2−/− organoids [2] = conditions: for Inhibition of cyst formation / cystic growth: PKD2−/− mutant organoids, 0.1 μM
Experimental: (§1) 15 g of methelcellulose powder (Sigma-Aldrich, M0512) was autoclaved in a 500-ml Erlenmeyer flask. The autoclaved methylcellulose was dissolved in 60° C. 450 ml of Advanced RPMI 1640 Medium (Gibco, 12633020). 50 ml of Advanced RPMI 1640 Medium+1× Glutamax (Gibco, 35050079) and 1% Penicillin-Streptomycin (Invitrogen, 15070063) was then added at room temperature to a final volume of 500 ml. The final stock solution was cleared by centrifugation at 4000×g for 2 hours. The clear viscous supernatant was used for the spheroid assay. For mini-organoids culture and imaging, 170 μl of 20% methycellulose stock solution+80% basal differentiation media mix was added to each well of a 96-well plate (brand).
(§2) At dd13, miniature kidney organoids were transferred from the EZSPHERE plates to a sterile 35-mm dish by gentle pipetting with wide-bore P1000 tips. Under a dissecting microscope, 10-12 mini-organoids in 10 μl of media were picked up using a P20 pipetman and released into a well of the methylcellulose plate. A P20 pipette tip was then used to adjust the mini-organoids' positions in the well to avoid clustering. The mini-organoids then dispersed at the bottom of the well.
Compounds that were scored as true “hits” from the primary screen were selected for validations in both PKD1−/− and PKD2−/− mutant organoids. The compounds were diluted in DMSO to 1, 10 or 100 μM via serial dilution to make the working stocks. At dd14, 20 μl of each diluted compound or DMSO was added to a methylcellulose well with embedded organoids (180 μl) to achieve a final concentration of 0.1, 1 or 10 μM. The plates were imaged for 7 days using the ImageXpress Micro System as described above.
Compounds that inhibited cyst formation in both PKD1−/− and PKD2−/− mini-organoids were classified as final “hits”.
Tolvaptan is the first FDA approved pharmacological treatment for ADPKD targeting cAMP levels through the inhibition of AVPR2.
We examined dosage-dependent responses by applying 3 different compound concentrations of each compound: 0.1, 1 and 10 μM.

PKD1−/− organoids = assay: Secondary screen of cystogenesis, dosage-dependent responses; type: cell-based, human
Experimental: as §1, §2
Compounds that were scored as true “hits” from the primary screen were selected for validations in both PKD1−/− and PKD2−/− mutant organoids. […]

Row | SMILES | Primary screen outcome at dd20 (cystic growth / cell growth inhibition) (PKD2−/− organoids [1]) | other results
1 | Cc1ncc2ccccc2c1C#N [4-Cyano-3-methylisoquinoline] | more specific inhibition of cystic growth | 
2 | CC(C)C[C@H](NC(=O)[C@H](CCc1ccccc1)NC(=O)CN1CCOCC1)C(=O)N[C@@H](Cc1ccccc1)C(=O)N[C@@H](CC(C)C)C(=O)[C@@]1(C)CO1 [Carfilzomib] |  | Inhibition of cyst formation / cystic growth (PKD2−/− organoids [2]): prevented cyst formation effectively; Concentration at which cyst formation was prevented (PKD1−/− organoids; PKD1−/− cystic organoids, tested 0.1, 1, 10 μM): only at the highest concentration
3 | O=C1NCCc2[nH]c(-c3ccncc3)cc21 [Cdc7/Cdk9 inhibitor] | more specific inhibition of cystic growth | 
4 | O=C1NC(=NCc2cccs2)S/C1=C\c1ccc2ncccc2c1 [Cdk1 inhibitor IV RO-3306] | more specific inhibition of cystic growth | 
5 | CC1=C(O)C(=O)C=C2C1=CC=C1[C@@]2(C)CC[C@@]2(C)[C@@H]3C[C@](C)(C(=O)O)CC[C@]3(C)CC[C@]12C [Celastrol] |  | Effect on cell growth (PKD2−/− organoids [2]; PKD2−/− organoids, 10 μM): more broadly detrimental to cell growth; Screen outcome category (PKD2−/− organoids [2]; PKD2−/− organoids, at 1): hit
6 | O=C(c1ccc(Nc2nccc(-c3cc4ccccc4s3)n2)cc1)N1CCC(N2CCCC2)CC1 [IKK inhibitor VII] | more specific inhibition of cystic growth | 
7 | NC(=O)Nc1sc(-c2ccccc2)cc1C(N)=O [IKK-2 inhibitor VI, (5-phenyl-2-ureido)thiophene-3-carboxamide] | more specific inhibition of cystic growth | 
8 | Nc1ncnc2n[nH]c(Nc3ccc(F)cc3)c12 [MNK1 inhibitor] | more specific inhibition of cystic growth | 
9 | Nc1ccc2ncnc(NCCc3ccc(Oc4ccccc4)cc3)c2c1 [NF-κB activation inhibitor] |  | Inhibition of cyst formation / cystic growth (PKD2−/− organoids [2]): highly effective inhibiting cystic growth; Inhibition of cystic growth (PKD1−/− organoids; PKD1−/− mutants, 0.1 μM): highly effective inhibiting cystic growth
10 | COc1cccc(-c2cc(=O)c3ccccc3o2)c1N [PD 98059] | more specific inhibition of cystic growth | 
11 | CN[C@@H]1C[C@H]2O[C@@](C)([C@@H]1OC)n1c3ccccc3c3c4c(c5c6ccccc6n2c5c31)C(=O)N[C@H]4O [UCN-02, 7-epi-hydroxystaurosporine] | more specific inhibition of cystic growth | 
12 | O=C1c2ccccc2-[n+]2ccc3c([nH]c4ccccc43)c21 [fascaplysin] | more specific inhibition of cystic growth | 
